Measurements from article PMC7753147, “High-throughput determination of protein affinities using unmodified peptide libraries in nanomolar scale” (iScience, 2020).

Legend:
gephE = assay: µSPOT peptide microarray binding assay with recombinant gephE
native geph = assay: µSPOT peptide microarray binding assay with native geph from mouse brain lysate
FL-geph = assay: µSPOT peptide microarray binding assay with full-length geph
[1] = µSPOT peptide microarray, GlyRβ full positional scan, recombinant gephE, intensity normalised to wild-type sequence DLRSNDFSIVGSLPR (=1)
[2] = µSPOT peptide microarray, GlyRβ full positional scan, native geph from mouse brain lysate, intensity normalised to wild-type sequence DLRSNDFSIVGSLPR (=1)
[3] = µSPOT peptide microarray, GlyRβ full positional scan, intensity normalised to wild-type sequence DLRSNDFSIVGSLPR (=1)
[4] = µSPOT full positional scan of GlyRβ 15-mer DLRSNDFSIVGSLPR, intensity normalised to wild-type sequence (= 1)
[5] = µSPOT full positional scan of GlyRβ 15-mer DLRSNDFSIVGSLPR, native geph, intensity normalised to wild-type sequence (= 1)

Row | Sequence | gephE Binding Intensity [norm.] (gephE; [1]) | Native geph Binding Intensity [norm.] (native geph; [2]) | Fl-geph Binding Intensity [norm.] (FL-geph; [3]) | gephE Binding Intensity [norm.] (gephE; [4]) | Native geph Binding Intensity [norm.] (native geph; [5]) | Fl-geph Binding Intensity [norm.] (FL-geph; [4])
1 | DLRSNDFSSVGSLPR [GlyRβ_Full_Positional_Scan_175, GlyR β 414-428 variant I422S] | 0.52 | 0.27 | 0.87 | – | – | –
2 | DLRSNDFSIVGSFPR [GlyRβ_Full_Positional_Scan_247] | – | – | – | 0.9 | 0.96 | 1.16
3 | DLRSNDFSIVQSLPR [GlyRβ_Full_Positional_Scan_220, GlyR β 414-428 variant G424Q] | – | – | – | 0.43 | 0.29 | 0.45
4 | DLRSNDTSIVGSLPR [GlyRβ_Full_Positional_Scan_136, GlyR β 414-428 variant F420T] | 0.47 | 0.36 | 0.51 | – | – | –
5 | DLRSNDFSIVGSAPR [GlyRβ_Full_Positional_Scan_241] | – | – | – | 0.9 | 1 | 1.07
6 | DLRSNDFSIVGSLPW [GlyRβ_Full_Positional_Scan_288] | – | – | – | 0.89 | 0.76 | 0.84
7 | DLRSNDFSWVGSLPR [GlyRβ_Full_Positional_Scan_168, GlyR β 414-428 variant I422W] | 0.59 | 0.2 | 0.67 | – | – | –
8 | QLRSNDFSIVGSLPR [GlyRβ_Full_Positional_Scan_020] | 1.19 | 1.2 | 1.16 | – | – | –
9 | DLRSNDFSIVGSLAR [GlyRβ_Full_Positional_Scan_261] | – | – | – | 0.67 | 0.63 | 0.99
10 | DLRSNDFEIVGSLPR [GlyRβ_Full_Positional_Scan_151, GlyR β 414-428 variant S421E] | 0.47 | 0.2 | 0.79 | – | – | –
11 | DLRSNDFSIVGSLPF [GlyRβ_Full_Positional_Scan_287] | – | – | – | 1.01 | 0.79 | 0.64
12 | DLRSNQFSIVGSLPR [GlyRβ_Full_Positional_Scan_120] | 0.95 | 0.53 | 0.78 | – | – | –
13 | DLRSNDFSIVGSLLR [GlyRβ_Full_Positional_Scan_264] | – | – | – | 0.66 | 0.32 | 0.74
14 | DLYSNDFSIVGSLPR [GlyRβ_Full_Positional_Scan_049] | 0.96 | 1.37 | 1.03 | – | – | –
15 | DLRSNDFSIVRSLPR [GlyRβ_Full_Positional_Scan_212, GlyR β 414-428 variant G424R] | – | – | – | 0.57 | 0.17 | 0.6
16 | DLQSNDFSIVGSLPR [GlyRβ_Full_Positional_Scan_060] | 0.91 | 1.3 | 1.06 | – | – | –
17 | DLESNDFSIVGSLPR [GlyRβ_Full_Positional_Scan_051] | 1.03 | 1.3 | 1.39 | – | – | –
18 | DMRSNDFSIVGSLPR [GlyRβ_Full_Positional_Scan_038] | 0.97 | 1.09 | 0.97 | – | – | –
19 | DRRSNDFSIVGSLPR [GlyRβ_Full_Positional_Scan_032] | 0.9 | 0.66 | 0.96 | – | – | –
20 | DLRSNDFSIVGSQPR [GlyRβ_Full_Positional_Scan_260] | – | – | – | 0.76 | 0.8 | 0.97
21 | WLRSNDFSIVGSLPR [GlyRβ_Full_Positional_Scan_008] | 0.91 | 0.67 | 0.86 | – | – | –
22 | DLDSNDFSIVGSLPR [GlyRβ_Full_Positional_Scan_050] | 1.09 | 1.45 | 1.38 | – | – | –
